23 molecules from patent publication US9346761B2, “Arginine methyltransferase inhibitors and uses thereof” (Epizyme, Inc., priority 2013, dated 2016) can be followed below.

For orientation: IC50 means the concentration at which inhibition is half-maximal. Low readings indicate higher potency, high ones lower potency.

The target in the assay is T1, Full-length human PRMT3 (Homo sapiens, UniProt O60678).
T1 construct: GST-tagged PRMT3; made in house; host or cells: E. coli BL21(DE3) Gold (pGEX-KG)
T1 sequence (O60678 with tags, fused parts or gaps): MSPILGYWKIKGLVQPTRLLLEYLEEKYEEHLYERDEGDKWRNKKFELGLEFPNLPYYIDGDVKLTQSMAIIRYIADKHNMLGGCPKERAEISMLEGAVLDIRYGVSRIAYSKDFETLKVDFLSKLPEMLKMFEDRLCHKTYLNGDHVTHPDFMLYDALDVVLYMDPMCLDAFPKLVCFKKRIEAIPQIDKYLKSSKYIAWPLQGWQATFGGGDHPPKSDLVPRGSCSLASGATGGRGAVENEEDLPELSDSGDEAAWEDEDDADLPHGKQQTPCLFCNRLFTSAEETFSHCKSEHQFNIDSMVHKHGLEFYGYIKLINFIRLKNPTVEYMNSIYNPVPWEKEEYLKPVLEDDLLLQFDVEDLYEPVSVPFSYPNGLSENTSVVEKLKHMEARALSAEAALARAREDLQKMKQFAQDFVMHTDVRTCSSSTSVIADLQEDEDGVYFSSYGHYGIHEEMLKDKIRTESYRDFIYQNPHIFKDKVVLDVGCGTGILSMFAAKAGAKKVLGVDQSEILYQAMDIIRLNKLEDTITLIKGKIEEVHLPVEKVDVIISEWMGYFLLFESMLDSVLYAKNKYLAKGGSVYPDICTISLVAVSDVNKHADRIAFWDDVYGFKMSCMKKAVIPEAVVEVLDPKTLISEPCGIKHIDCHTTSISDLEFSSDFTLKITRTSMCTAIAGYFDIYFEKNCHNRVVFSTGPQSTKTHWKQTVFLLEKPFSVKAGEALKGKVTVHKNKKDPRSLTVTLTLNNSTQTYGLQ
Briefly: PRMT3 biochemical assay (3H-SAM Flashplate, peptide substrate). Put shortly:
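Methylation of a biotinylated peptide (330 nM) by 0.5 nM GST-PRMT3 using 3H-SAM 100 nM with unlabelled SAM 1.8 uM, 20 mM Bicine pH 7.6, 2% DMSO, after 30 min enzyme–compound preincubation. Scintillation counts on streptavidin Flashplates normalised to 1 mM SAH and DMSO controls; curve fits with floating or fixed Hill slope.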
In turn, `CNCCN(C)Cc1cn(C2CC2)nc1-c1ccc(F)cc1` [Compound 13] showed a 50% inhibitory concentration (IC50) greater than 10 µM.

With `CNCCN(C)Cc1cnn(C2CC2)c1-c1ccc(F)cc1` [Compound 14], the IC50 was greater than 10 µM.

Consider `CNCCN(C)Cc1cn(C(C)C)nc1-c1ccc(F)cc1` [Compound 15], for which the IC50 is greater than 10 µM.

Turning to `CNCCN(C)Cc1cnn(C(C)C)c1-c1ccc(F)cc1` [Compound 16], the IC50 was greater than 10 µM.

In the case of `CNCCN(C)Cc1cn[nH]c1-c1ccc(C#N)cc1` [Compound 17], the IC50 lay within 1.01 to 3 µM.

Turning to `CNCCN(C)Cc1cn[nH]c1-c1cc(F)cc(F)c1` [Compound 18], the IC50 lay in the range of 3.01 to 10 µM.

Turning to `CCCc1ccc(-c2n[nH]cc2CN(C)CCNC)cc1` [Compound 20], the IC50 lay within 3.01 to 10 µM.

The molecule `CNCCN(C)Cc1c[nH]nc1-c1cccc([N+](=O)[O-])c1` [Compound 21] had an IC50 of 1.01 to 3 µM.

On to `CNCCN(C)Cc1c[nH]nc1-c1cccc(C#N)c1` [Compound 22], for which the IC50 is greater than 10 µM.

The molecule `CNCCN(C)Cc1c[nH]nc1-c1ccccc1OC` [Compound 23] had a 50% inhibitory concentration (IC50) greater than 10 µM.

In the case of `CNCCN(C)Cc1c[nH]nc1-c1cccc(OC)c1` [Compound 24], the IC50 was greater than 10 µM.

As for `CNCCN(C)Cc1c[nH]nc1-c1ccc(OC)cc1` [Compound 25], the IC50 is greater than 10 µM.

Molecule `CNCCN(C)Cc1c[nH]nc1-c1cccc(O)c1` [Compound 26] came in with an IC50 greater than 10 µM.

As for `CNCCN(C)Cc1c[nH]nc1-c1ccc(O)cc1` [Compound 27], the half-inhibitory concentration (IC50) is greater than 10 µM.

The molecule `CNCCN(C)Cc1c[nH]nc1-c1ccc(CO)cc1` [Compound 28] displayed an IC50 of 0.101 to 1 µM.

Regarding `CNCCN(C)Cc1c[nH]nc1-c1ccc(C)cc1C` [Compound 29], the IC50 is greater than 10 µM.

`CNCCN(C)Cc1cn(CCCC(O)CO)nc1-c1ccc(F)cc1` (centres unmarked) [Compound 30] returned an IC50 greater than 10 µM.

For `CNCCN(C)Cc1cnn(CCCC(O)CO)c1-c1ccc(F)cc1` (centres unmarked) [Compound 31], the IC50 is greater than 10 µM.

Turning to `CNCCN(C)Cc1c[nH]nc1-c1ccc(N)cc1` [Compound 33], the IC50 fell in the range of 1.01 to 3 µM.

In turn, `CNCCN(C)Cc1c[nH]nc1-c1ccc(Oc2ccccc2)cc1` [Compound 37] showed an IC50 of 0.101 to 1 µM.

Turning to `CNCCN(C)Cc1c[nH]nc1-c1ccccc1C(F)(F)F` [Compound 38], the concentration for half-maximal inhibition (IC50) was greater than 10 µM.

`CNCCN(C)Cc1c[nH]nc1-c1ccccc1OC(F)(F)F` [Compound 40]: the IC50 was greater than 10 µM.

With `CCNC(=O)c1cccc(-c2n[nH]cc2CN(C)CCNC)c1` [Compound 43], the IC50 was greater than 10 µM.
